Results published in publication PMC9599461, “Stereoselectivity in the Membrane Transport of Phenylethylamine Derivatives by Human Monoamine Transporters and Organic Cation Transporters 1, 2, and 3” (Biomolecules, 2022).
“And” between values parts separate entries of the source, which are not always exact repeats. Equal entries are not always repeated.

T1: OCT1 (Homo sapiens, UniProt O15245)
T1 sequence (O15245 1-554): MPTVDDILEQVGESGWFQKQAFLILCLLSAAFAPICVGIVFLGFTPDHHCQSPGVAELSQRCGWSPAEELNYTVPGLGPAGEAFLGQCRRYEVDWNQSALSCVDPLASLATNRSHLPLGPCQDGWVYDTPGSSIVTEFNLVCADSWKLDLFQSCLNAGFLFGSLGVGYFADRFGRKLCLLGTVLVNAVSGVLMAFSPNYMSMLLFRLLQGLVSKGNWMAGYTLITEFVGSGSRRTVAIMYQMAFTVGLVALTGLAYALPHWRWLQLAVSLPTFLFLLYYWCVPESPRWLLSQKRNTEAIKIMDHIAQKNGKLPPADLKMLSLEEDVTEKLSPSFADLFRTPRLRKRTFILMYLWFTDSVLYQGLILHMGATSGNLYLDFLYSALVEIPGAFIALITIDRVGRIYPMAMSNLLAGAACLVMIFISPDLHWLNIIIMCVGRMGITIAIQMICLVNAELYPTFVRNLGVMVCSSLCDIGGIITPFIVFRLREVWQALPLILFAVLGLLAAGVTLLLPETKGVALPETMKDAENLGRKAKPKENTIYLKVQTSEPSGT

T2: OCT3 (Homo sapiens, UniProt O75751)
T2 sequence (O75751 1-556): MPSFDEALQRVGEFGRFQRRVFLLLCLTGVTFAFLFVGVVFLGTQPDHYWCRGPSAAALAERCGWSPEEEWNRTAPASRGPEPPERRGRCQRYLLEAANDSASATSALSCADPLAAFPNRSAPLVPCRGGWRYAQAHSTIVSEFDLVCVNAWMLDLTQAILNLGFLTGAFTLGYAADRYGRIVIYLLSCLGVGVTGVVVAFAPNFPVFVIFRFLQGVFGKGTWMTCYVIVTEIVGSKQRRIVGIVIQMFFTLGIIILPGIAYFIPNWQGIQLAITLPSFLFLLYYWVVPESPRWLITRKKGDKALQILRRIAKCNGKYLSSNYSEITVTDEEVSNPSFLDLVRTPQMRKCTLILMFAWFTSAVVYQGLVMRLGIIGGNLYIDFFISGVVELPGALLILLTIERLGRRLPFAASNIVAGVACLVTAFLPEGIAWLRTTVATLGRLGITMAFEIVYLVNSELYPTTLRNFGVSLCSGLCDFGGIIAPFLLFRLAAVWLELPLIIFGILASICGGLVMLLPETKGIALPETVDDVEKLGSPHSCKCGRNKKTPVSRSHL

T3: OCT2 (Homo sapiens, UniProt O15244)
T3 sequence (O15244 1-555 S270A): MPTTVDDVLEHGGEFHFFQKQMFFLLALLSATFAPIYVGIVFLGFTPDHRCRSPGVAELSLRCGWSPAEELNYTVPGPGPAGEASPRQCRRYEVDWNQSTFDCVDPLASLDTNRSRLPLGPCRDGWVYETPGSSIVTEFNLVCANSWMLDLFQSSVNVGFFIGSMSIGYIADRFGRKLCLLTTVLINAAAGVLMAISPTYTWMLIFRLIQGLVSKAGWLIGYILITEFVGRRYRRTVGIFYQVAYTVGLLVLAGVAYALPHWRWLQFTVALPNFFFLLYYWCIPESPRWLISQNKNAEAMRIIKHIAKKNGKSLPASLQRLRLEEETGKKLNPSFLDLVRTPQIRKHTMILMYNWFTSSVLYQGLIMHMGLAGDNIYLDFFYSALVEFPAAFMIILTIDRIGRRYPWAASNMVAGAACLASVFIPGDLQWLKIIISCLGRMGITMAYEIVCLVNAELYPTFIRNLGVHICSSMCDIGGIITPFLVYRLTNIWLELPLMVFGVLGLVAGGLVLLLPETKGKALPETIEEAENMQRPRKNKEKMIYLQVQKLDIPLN

T4: OCT2 (wild-type) (Homo sapiens, UniProt O15244)
T4 sequence (O15244 1-555 S270A): T3 sequence (O15244 1-555 S270A)

B1: OCT2 (Homo sapiens; S270A) (protein)
chain: T3 sequence (O15244 1-555 S270A)

Assays:
NET = NET (Homo sapiens, UniProt P23975); test: Stereoselective uptake into NET-overexpressing HEK293 cells; conditions: for Clint ± SEM / Stereoselectivity Vmax / Stereoselectivity Km: NET; for Clint ± SEM: quotient of vmax over Km; for Stereoselectivity Vmax / Stereoselectivity Km: ratio between enantiomers; for Stereoselectivity Vmax: given as for (R) or for 1; for Stereoselectivity Km: given as for (R) or for 1 (first-eluting); for selectivity ratio at 2 min: human, HEK293 cells stably overexpressing human NET;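 as to all read-outs here: intracellular enantiomers quantified in cell lysates by chiral HPLC-MS/MS after a 2 min substrate incubation, with uptake normalized to total cellular protein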
DAT = DAT (Homo sapiens, UniProt Q01959); test: Stereoselective uptake into DAT-overexpressing HEK293 cells; conditions: for Clint ± SEM / Stereoselectivity Vmax / Stereoselectivity Km: DAT; for Clint ± SEM: quotient of vmax over Km; for Stereoselectivity Vmax / Stereoselectivity Km: ratio between enantiomers; for Stereoselectivity Vmax: given as for (R) or for 1; for Stereoselectivity Km: given as for (R) or for 1 (first-eluting); for selectivity ratio at 2 min: human, HEK293 cells stably overexpressing human DAT;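 as to all read-outs here: intracellular accumulation measured by chiral HPLC-MS/MS in stably transfected HEK293 cells, normalized to total protein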
SERT = SERT (Homo sapiens, UniProt P31645); test: Stereoselective uptake into SERT-overexpressing HEK293 cells; conditions: for Clint ± SEM / Stereoselectivity Vmax / Stereoselectivity Km: SERT; for Clint ± SEM: quotient of vmax over Km; for Stereoselectivity Vmax / Stereoselectivity Km: ratio between enantiomers; for Stereoselectivity Vmax: given as for (R) or for 1; for Stereoselectivity Km: given as for (R) or for 1 (first-eluting); for selectivity ratio at 2 min: human, HEK293 cells stably overexpressing human SERT;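 as to all read-outs here: uptake into HEK293 cells stably expressing human SERT over 2 min, enantiomers measured in cell lysate by chiral HPLC-MS/MS, normalized to total protein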
OCT1 = biological target: T1, OCT1; test: Stereoselective uptake into OCT1-overexpressing HEK293 cells; conditions: OCT1; for Clint ± SEM: quotient of vmax over Km; for selectivity ratio at 2 min: human, ratio between enantiomers;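 as to all read-outs here: enantiomers quantified inside cells by chiral HPLC-MS/MS, uptake normalized to total protein from bicinchoninic acid assay, substrates applied in HBSS+ buffer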
OCT3 = biological target: T2, OCT3; test: Stereoselective uptake into OCT3-overexpressing HEK293 cells; conditions: for Clint ± SEM / Stereoselectivity Vmax: OCT3; for Clint ± SEM: quotient of vmax over Km; for Stereoselectivity Vmax: ratio between enantiomers, given as for (S) or for 2; for selectivity ratio at 2 min: human, HEK293 cells stably overexpressing human OCT3;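 as to all read-outs here: intracellular accumulation in HEK293 cells measured by chiral HPLC-MS/MS after a 2 min substrate exposure at 37 °C, uptake normalized to total protein (bicinchoninic acid assay)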
Procedure: (§1) All transport experiments were carried out in HEK293 cells stably overexpressing human MATs or OCTs. […] All cells were regularly cultivated in DMEM supplemented with 10% (v/v) FCS, penicillin (100 U/mL) and streptomycin (100 μg/mL)and kept in culture for no longer than 30 passages.
(§2) For the uptake experiments, 300,000 cells were plated in poly-D-lysine precoated 24-well plates 48 h ahead of the transport experiment. On the day of experiment, cells were initially washed once with 37 °C pre-warmed HBSS+ (Hanks buffered salt solution supplemented with 10 mM HEPES) and subsequently incubated with the substrates dissolved in pre-warmed HBSS+ for exactly two minutes. Incubation was stopped by adding ice-cold HBSS+ followed by two washing steps. After this, cells were lysed with 80% acetonitrile containing 10 ng/mL milnacipran as internal standard for high-performance liquid chromatography coupled to tandem mass spectrometry (HPLC-MS/MS) analysis. For every experiment, two additional wells per cell line were lysed using RIPA buffer for protein quantification. Total protein was quantified using the bicinchoninic acid assay [42]. This was later used for normalization of the uptake data.
Intracellularly accumulated test substances were quantified by HPLC-MS/MS analysis using a Shimadzu Nexera HPLC system with a SIL-30AC autosampler, a CTO-20AC column oven, a LC-30AD pump, and a CBM-20A controller (Shimadzu, Kyoto, Japan). Stereoselective chromatography was carried out on a [sequence] CBH HPLC column (100 × 3 mm inner dimension with 5 μM particle size; Sigma-Aldrich, Darmstadt, Germany) with a corresponding 10 × 3 mm guard column. Reversed phased chromatography was carried out using an ammonium acetate (NH4Ac) buffered aqueous mobile phase with isopropyl alcohol (IPA) as organic solvent. […] The order of elution of the enantiomers was obtained from available reference literature [43] or by applying enantiopure reference compounds to the chiral HPLC. […] Given the structural similarity of the investigated substances and the fact that separation was performed on the same column with almost identical mobile phases, we assume that this order of elution for our compound set is always the (R)- before the (S)-enantiomer.
(§3) Detection was performed with an API 4000 tandem mass spectrometer (AB SCIEX, Darmstadt, Germany) operating in multiple-reaction-monitoring mode. Quantification was performed using the Analyst 1.6.2 software (AB SCIEX, Darmstadt, Germany) and quantified by comparison to standard curves with known concentrations.
(§4) All uptake data were normalized to protein content to account for variation in the number of seeded sells. Transporter-mediated net uptake was calculated by subtracting uptake into empty vector-transfected control cells from uptake into transporter-transfected cells. Kinetic parameters were then determined after non-linear regression following the Michaelis–Menten equation (v = vmax × [S]/(Km + [S])) using GraphPad Prism (Version 5.01 for Windows, GraphPad Software, La Jolla, CA, USA). Vmax refers to the maximum transport velocity and Km is defined as the substance concentration required to reach half of vmax. The intrinsic clearance Clint was calculated as the quotient of vmax over Km.

OCT2 = biological target: T3, OCT2; test: Stereoselective uptake into OCT2 (wild-type)-overexpressing HEK293 cells; conditions: OCT2; for Clint ± SEM: quotient of vmax over Km; for selectivity ratio at 2 min: human, ratio between enantiomers
Procedure: as §1, §2
(§5) Intracellularly accumulated test substances were quantified by HPLC-MS/MS analysis using a Shimadzu Nexera HPLC system with a SIL-30AC autosampler, a CTO-20AC column oven, a LC-30AD pump, and a CBM-20A controller (Shimadzu, Kyoto, Japan). Stereoselective chromatography was carried out on a [sequence] CBH HPLC column (100 × 3 mm inner dimension with 5 μM particle size; Sigma-Aldrich, Darmstadt, Germany) with a corresponding 10 × 3 mm guard column. Reversed phased chromatography was carried out using an ammonium acetate (NH4Ac) buffered aqueous mobile phase with isopropyl alcohol (IPA) as organic solvent. […] The order of elution of the enantiomers was obtained from available reference literature [43] or by applying enantiopure reference compounds to the chiral HPLC. […] However, in every other case where the order of elution was available, the (R)-enantiomer eluted first. Given the structural similarity of the investigated substances and the fact that separation was performed on the same column with almost identical mobile phases, we assume that this order of elution for our compound set is always the (R)- before the (S)-enantiomer.
as §3, §4
(§6) HEK293 cells stably overexpressing wild-type or mutant OCT2 were incubated with 100 μM racemic substance for two minutes.

[1] = system: OCT2 wild-type versus A270S variant; test: Stereoselective uptake into OCT2 A270S variant-overexpressing HEK293 cells; conditions: human;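 also: uptake into HEK293 cells stably overexpressing human OCT2 variants, intracellular enantiomers quantified by chiral HPLC-MS/MS and normalized to total protein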
[2] = system: human neuroblastoma cells; set-up: method as in PMID 9085193; conditions: cited from earlier work
OCT2 A270S variant = test: in vitro; conditions: human, Stereoselectivity OCT2_A270S, 100 μM racemic substance, two minutes; uptake ratio of enantiomers, given as for (S)
OCT2 (wild-type) = biological target: T4, OCT2 (wild-type); test: Stereoselective uptake into OCT2 (wild-type)-overexpressing HEK293 cells; conditions: human, Stereoselectivity OCT2_WT, 100 μM racemic substance, two minutes; uptake ratio of enantiomers, given as for (S)
Procedure: as §1, §2, §5, §3, §4, §6

[3] = substrate: CNCC(O)c1ccc(O)c(OC)c1; test: cells, lysate or membranes; conditions: other: HEK293 cells overexpressing human OCT2; racemic substrate, two minutes; net uptake minus empty vector control; 37.0 °C
Procedure: as §1, §2, §5, §3, §4, §6

[4] = substrate: CNCC(O)c1ccccc1; test: cells, lysate or membranes; conditions: other: HEK293 cells overexpressing human OCT2; racemic substrate, two minutes; net uptake minus empty vector control; 37.0 °C
Procedure: as §1, §2, §5, §3, §4, §6

[5] = substrate: CNC[C@@H](O)c1ccc(O)cc1; test: cells, lysate or membranes; conditions: other: HEK293 cells overexpressing human OCT2; racemic substrate, two minutes; net uptake minus empty vector control; 37.0 °C
Procedure: as §1, §2, §5, §3, §4, §6

[6] = substrate: CNC[C@@H](O)c1cccc(O)c1; test: cells, lysate or membranes; conditions: other: HEK293 cells overexpressing human OCT2; racemic substrate, two minutes; net uptake minus empty vector control; 37.0 °C
Procedure: as §1, §2, §5, §3, §4, §6

[7] = substrate: CNC[C@H](O)c1cccc(O)c1; test: cells, lysate or membranes; conditions: other: HEK293 cells overexpressing human OCT2; racemic substrate, two minutes; net uptake minus empty vector control; 37.0 °C
Procedure: as §1, §2, §5, §3, §4, §6

[8] = substrate: COc1cc(C(O)CN)ccc1O; test: cells, lysate or membranes; conditions: other: HEK293 cells overexpressing human OCT2; racemic substrate, two minutes; net uptake minus empty vector control; 37.0 °C
Procedure: as §1, §2, §5, §3, §4, §6

[9] = substrate: NCC(O)c1cccc(O)c1; test: cells, lysate or membranes; conditions: other: HEK293 cells overexpressing human OCT2; racemic substrate, two minutes; net uptake minus empty vector control; 37.0 °C
[10] = substrate: NC[C@H](O)c1ccc(O)cc1; test: cells, lysate or membranes; conditions: other: HEK293 cells overexpressing human OCT2; racemic substrate, two minutes; net uptake minus empty vector control; 37.0 °C
Procedure: as §1, §2, §5, §3, §4, §6

[11] = substrate: [H][C@](O)(CNC)c1ccc(O)cc1; test: cells, lysate or membranes; conditions: other: HEK293 cells overexpressing human OCT2; racemic substrate, two minutes; net uptake minus empty vector control; 37.0 °C
Procedure: as §1, §2, §5, §3, §4, §6

[12] = HEK293 cells stably overexpressing human OCT1, Stereoselectivity ClInt, given as for (R) or for 1 (also 1.00-fold for 1/2)
[13] = HEK293 cells stably overexpressing human OCT1, Stereoselectivity Km, given as for (R) or for 1 (first-eluting)
[14] = HEK293 cells stably overexpressing human OCT1, Stereoselectivity Vmax, given as for (R) or for 1
[15] = HEK293 cells stably overexpressing human wild-type OCT2, Stereoselectivity ClInt, given as for (R) or for 1
[16] = HEK293 cells stably overexpressing human wild-type OCT2, Stereoselectivity Km, given as for (R) or for 1 (first-eluting)
[17] = HEK293 cells stably overexpressing human wild-type OCT2, Stereoselectivity Vmax, given as for (R) or for 1

DAT, sequence (Q01959 whole entry): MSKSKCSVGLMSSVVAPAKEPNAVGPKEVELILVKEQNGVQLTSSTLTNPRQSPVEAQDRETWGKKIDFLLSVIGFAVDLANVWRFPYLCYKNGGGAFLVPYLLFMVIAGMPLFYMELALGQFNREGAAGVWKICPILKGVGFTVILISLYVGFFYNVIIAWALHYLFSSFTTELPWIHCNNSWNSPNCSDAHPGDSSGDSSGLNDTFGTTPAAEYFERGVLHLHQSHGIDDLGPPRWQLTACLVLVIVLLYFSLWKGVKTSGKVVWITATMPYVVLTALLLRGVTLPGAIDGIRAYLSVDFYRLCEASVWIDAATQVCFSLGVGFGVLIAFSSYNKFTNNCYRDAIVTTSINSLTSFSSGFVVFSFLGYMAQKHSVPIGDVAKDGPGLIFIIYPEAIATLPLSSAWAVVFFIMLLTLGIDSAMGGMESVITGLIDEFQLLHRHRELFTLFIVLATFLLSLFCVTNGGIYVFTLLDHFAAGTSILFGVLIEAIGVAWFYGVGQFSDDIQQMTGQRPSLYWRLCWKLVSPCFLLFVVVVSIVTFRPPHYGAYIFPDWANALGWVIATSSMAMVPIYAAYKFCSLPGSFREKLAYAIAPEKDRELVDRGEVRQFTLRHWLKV
SERT, sequence (P31645 whole entry): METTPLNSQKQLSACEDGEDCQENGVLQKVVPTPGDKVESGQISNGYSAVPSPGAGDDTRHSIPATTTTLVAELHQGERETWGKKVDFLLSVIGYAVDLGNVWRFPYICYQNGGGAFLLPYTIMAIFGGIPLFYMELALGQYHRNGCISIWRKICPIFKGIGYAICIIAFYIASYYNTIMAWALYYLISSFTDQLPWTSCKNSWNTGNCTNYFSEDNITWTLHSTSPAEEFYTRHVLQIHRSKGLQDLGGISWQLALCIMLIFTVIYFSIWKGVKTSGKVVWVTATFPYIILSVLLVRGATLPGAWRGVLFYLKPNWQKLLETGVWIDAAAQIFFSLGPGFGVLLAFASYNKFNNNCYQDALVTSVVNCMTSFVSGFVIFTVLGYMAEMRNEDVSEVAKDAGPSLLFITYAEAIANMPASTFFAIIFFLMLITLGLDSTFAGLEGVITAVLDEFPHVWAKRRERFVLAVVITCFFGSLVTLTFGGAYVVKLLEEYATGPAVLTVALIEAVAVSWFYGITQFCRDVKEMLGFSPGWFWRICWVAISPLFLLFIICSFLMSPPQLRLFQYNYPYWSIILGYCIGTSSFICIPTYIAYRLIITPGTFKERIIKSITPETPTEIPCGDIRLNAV
NET, sequence (P23975 whole entry): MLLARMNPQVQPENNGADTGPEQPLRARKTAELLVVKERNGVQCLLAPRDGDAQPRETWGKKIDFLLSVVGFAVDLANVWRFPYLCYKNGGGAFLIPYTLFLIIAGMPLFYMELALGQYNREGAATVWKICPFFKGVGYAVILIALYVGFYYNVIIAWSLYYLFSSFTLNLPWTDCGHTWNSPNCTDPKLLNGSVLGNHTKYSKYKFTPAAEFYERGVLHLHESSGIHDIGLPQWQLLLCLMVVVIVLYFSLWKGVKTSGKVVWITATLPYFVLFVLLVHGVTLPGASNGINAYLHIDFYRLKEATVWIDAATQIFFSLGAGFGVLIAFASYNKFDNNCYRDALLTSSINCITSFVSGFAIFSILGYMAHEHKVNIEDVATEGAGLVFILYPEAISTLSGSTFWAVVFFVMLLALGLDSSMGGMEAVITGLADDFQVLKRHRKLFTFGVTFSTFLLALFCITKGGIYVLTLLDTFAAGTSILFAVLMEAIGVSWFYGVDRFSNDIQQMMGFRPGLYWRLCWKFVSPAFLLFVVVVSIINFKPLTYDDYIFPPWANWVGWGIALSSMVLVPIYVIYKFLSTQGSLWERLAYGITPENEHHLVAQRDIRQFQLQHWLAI

Row | Molecule | Clint ± SEM (NET) | Stereoselectivity Vmax (NET) [fold] | Stereoselectivity Km (NET) [fold] | selectivity ratio at 2 min (NET) | Clint ± SEM (DAT) | Stereoselectivity Vmax (DAT) [fold] | Stereoselectivity Km (DAT) [fold] | selectivity ratio at 2 min (DAT) | Clint ± SEM (SERT) | Stereoselectivity Vmax (SERT) [fold] | Stereoselectivity Km (SERT) [fold] | selectivity ratio at 2 min (SERT) | Clint ± SEM (OCT1) | selectivity ratio at 2 min (OCT1; [12]) | selectivity ratio at 2 min (OCT1; [13]) | selectivity ratio at 2 min (OCT1; [14]) | Clint ± SEM (OCT3) | Stereoselectivity Vmax (OCT3) [fold] | selectivity ratio at 2 min (OCT3) | Clint ± SEM (OCT2) | other results
1 | NC[C@H](O)c1ccc(O)cc1 [(R)-Octopamine] | 166 mL × g Protein^−1 × min^−1 | 1.30 | 1.55 | 1.19 | 100 mL × g Protein^−1 × min^−1 | 1.05 | 1.05 | 1 | 4.14 mL × g Protein^−1 × min^−1 | 2.38 | 1.39 | 1.71 | 4.53 mL × g Protein^−1 × min^−1 | 1.05 | 1.04 | 1.09 | 38.8 mL × g Protein^−1 × min^−1 | 1.10 | 1.38 | 39.6 mL × g Protein^−1 × min^−1 | selectivity ratio at 2 min (OCT2; [15]): 1.31; selectivity ratio at 2 min (OCT2; [16]): 1.63; selectivity ratio at 2 min (OCT2; [17]): 2.14; selectivity ratio at 2 min, 100 μM [1]: 1.2
2 | NC[C@@H](O)c1ccc(O)cc1 [(S)-Octopamine] | 198 mL × g Protein^−1 × min^−1 | 1.30 | 1.55 | 1.19 | 100 mL × g Protein^−1 × min^−1 | 1.05 | 1.05 | 1 | 2.42 mL × g Protein^−1 × min^−1 | 2.38 | 1.39 | 1.71 | 4.32 mL × g Protein^−1 × min^−1 | 1.05 | 1.04 | 1.09 | 53.4 mL × g Protein^−1 × min^−1 | 1.10 | 1.38 | 30.2 mL × g Protein^−1 × min^−1 | selectivity ratio at 2 min (OCT2; [15]): 1.31; selectivity ratio at 2 min (OCT2; [16]): 1.63; selectivity ratio at 2 min (OCT2; [17]): 2.14; selectivity ratio at 2 min, 100 μM [1]: 1.17
3 | CC1NCCc2cc(O)c(O)cc21 (centres unmarked) [Salsolinol] |  |  |  |  |  |  |  |  |  |  |  |  |  |  |  |  |  |  |  |  | Cytotoxicity of (S)-enantiomer versus (R)-enantiomer [2]: almost two-fold higher; selectivity ratio at 2 min, 100 μM (OCT2 A270S variant): 1.1; selectivity ratio at 2 min, 100 μM (OCT2 (wild-type)): 1.06
4 | B1 |  |  |  |  |  |  |  |  |  |  |  |  |  |  |  |  |  |  |  |  | Km [3]: 54.7 µM and 68.1 µM; Km [4]: 12.8 µM and 19.3 µM; Vmax [4]: 329 pmol × mg Protein^−1 × min^−1 and 261 pmol × mg Protein^−1 × min^−1; Km [5]: 214 µM; Vmax [5]: 5307 pmol × mg Protein^−1 × min^−1; Km [6]: 112 µM; Vmax [6]: 3068 pmol × mg Protein^−1 × min^−1; Km [7]: 212 µM; Vmax [7]: 6263 pmol × mg Protein^−1 × min^−1; Km [8]: 464 µM and 613 µM; Vmax [8]: 2747 pmol × mg Protein^−1 × min^−1 and 5665 pmol × mg Protein^−1 × min^−1; Km [9]: 911 µM and 582 µM; Vmax [9]: 33143 pmol × mg Protein^−1 × min^−1 and 15157 pmol × mg Protein^−1 × min^−1; Km [10]: 636 µM; Vmax [10]: 25182 pmol × mg Protein^−1 × min^−1; Km [11]: 443 µM; Vmax [11]: 10877 pmol × mg Protein^−1 × min^−1
